According to EP0080822A1, “Anti-hypertensive prolinol-based peptides” (BEECHAM GROUP PLC, priority 1981, dated 1983):

How the values were obtained:
[1] = target: T1, angiotensin converting enzyme (Rattus norvegicus, UniProt P47820); test: In vivo test for inhibition of angiotensin converting enzyme: pressor responses to angiotensin I and II in anaesthetised rats
T1 construct: were each tested in anaesthetised rats; from tissue; host or cells: whole animal (anaesthetised rat)
T1 sequence (P47820 36-1313): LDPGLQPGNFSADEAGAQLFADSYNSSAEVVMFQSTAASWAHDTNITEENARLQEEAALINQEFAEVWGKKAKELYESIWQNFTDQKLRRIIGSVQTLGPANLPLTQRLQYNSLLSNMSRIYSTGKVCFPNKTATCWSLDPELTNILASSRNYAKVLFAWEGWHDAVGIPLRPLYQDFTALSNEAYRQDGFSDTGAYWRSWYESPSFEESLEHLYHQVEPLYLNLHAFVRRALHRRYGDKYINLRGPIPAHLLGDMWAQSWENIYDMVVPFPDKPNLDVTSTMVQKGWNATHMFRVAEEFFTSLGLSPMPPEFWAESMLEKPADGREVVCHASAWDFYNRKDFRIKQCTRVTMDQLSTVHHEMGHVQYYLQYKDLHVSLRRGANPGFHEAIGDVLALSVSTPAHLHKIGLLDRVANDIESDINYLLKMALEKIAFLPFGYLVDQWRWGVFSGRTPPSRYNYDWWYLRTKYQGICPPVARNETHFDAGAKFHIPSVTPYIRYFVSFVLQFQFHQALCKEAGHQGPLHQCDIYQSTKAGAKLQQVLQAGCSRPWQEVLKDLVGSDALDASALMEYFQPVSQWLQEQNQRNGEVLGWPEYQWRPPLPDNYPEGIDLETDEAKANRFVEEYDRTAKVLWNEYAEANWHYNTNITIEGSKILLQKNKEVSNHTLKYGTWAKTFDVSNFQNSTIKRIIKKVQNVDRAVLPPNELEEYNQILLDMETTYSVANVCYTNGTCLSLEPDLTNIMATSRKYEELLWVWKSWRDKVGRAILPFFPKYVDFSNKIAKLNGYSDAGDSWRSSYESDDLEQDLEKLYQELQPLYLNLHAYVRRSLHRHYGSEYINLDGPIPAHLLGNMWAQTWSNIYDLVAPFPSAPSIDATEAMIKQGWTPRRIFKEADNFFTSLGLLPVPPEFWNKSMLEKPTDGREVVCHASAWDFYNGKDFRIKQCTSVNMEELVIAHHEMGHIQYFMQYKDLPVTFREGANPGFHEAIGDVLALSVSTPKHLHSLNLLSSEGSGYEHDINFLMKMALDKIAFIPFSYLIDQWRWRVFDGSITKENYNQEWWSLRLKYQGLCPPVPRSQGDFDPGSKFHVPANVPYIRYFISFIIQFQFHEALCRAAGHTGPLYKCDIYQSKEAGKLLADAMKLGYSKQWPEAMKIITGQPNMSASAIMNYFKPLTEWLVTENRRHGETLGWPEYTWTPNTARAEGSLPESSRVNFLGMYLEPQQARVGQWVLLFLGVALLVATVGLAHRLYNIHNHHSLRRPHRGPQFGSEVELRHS
Method: 2. In vivo test for inhibition of angiotensin converting enzyme.
The compounds of examples 1,2,4 & 5 were each tested in anaesthetised rats for their ability to reduce the pressor responses to angiotensin I, but not those to angiotensin II. The dose of angiotensin I was 300 n.g/kg (i.v) and the dose of angiotensin II was 100 ng/kg (i.v).
The results given are the mean of those obtained from the given number of rats.
'I' is the increase in diastolic blood pressure (mm Hg) to angiotensin I (control reponse).
'%R' is the percentage reduction in control angiotensin I response after the intervals (min) from dosage.

[2] = target: T2, rat lung angiotensin converting enzyme preparation (Rattus norvegicus, UniProt P47820); test: In vitro test for inhibition of angiotensin converting enzyme; assay type: biochemical; settings: mean of 3 experiments; read-out: 50% inhibitior. (IC50) of rat lung angiotensin converting enzyme preparation
T2 construct: rat lung angiotensin converting enzyme preparation; from tissue; host or cells: rat lung
T2 sequence (P47820 36-1313): T1 sequence (P47820 36-1313)
Excerpt: 1. In vitro test for inhibition of angiotensin converting enzyme

[3] = system: Spontaneously hypertensive rats; test: Antihypertensive activity in spontaneously hypertensive rats (tail cuff method); assay type: in vivo
Method: 3. Antihypertensive Activity
Each determination of blood pressure was the mean of at least 6 readings. Spontaneously hypertensive rats (ages 12-18 weeks) with systolic blood pressures 170 mmH:g were considered hypertensive.
The initial blood pressure and heart rats were determined and recorded together with the % changes occuring at intervals thereafter: […]

[4] = 0.03 mg/kg i.v, 5 min from dosage
[5] = 0.03 mg/kg i.v, 10 min from dosage
[6] = 0.03 mg/kg i.v, 15 min from dosage
[7] = 0.10 mg/kg i.v, 5 min from dosage
[8] = 0.10 mg/kg i.v, 10 min from dosage
[9] = 0.10 mg/kg i.v, 15 min from dosage
[10] = 0.10 mg/kg i.v, 25 min from dosage
[11] = 0.10 mg/kg i.v, 30 min from dosage
[12] = 0.10 mg/kg i.v, 40 min from dosage
[13] = 0.10 mg/kg i.v, 45 min from dosage
[14] = 0.10 mg/kg i.v, 50 min from dosage
[15] = 0.30 mg/kg i.v, 5 min from dosage
[16] = 0.30 mg/kg i.v, 10 min from dosage
[17] = 0.30 mg/kg i.v, 15 min from dosage
[18] = 0.30 mg/kg i.v, 25 min from dosage
[19] = 0.30 mg/kg i.v, 30 min from dosage
[20] = 0.30 mg/kg i.v, 40 min from dosage
[21] = 0.30 mg/kg i.v, 45 min from dosage
[22] = 0.30 mg/kg i.v, 50 min from dosage
[23] = 10 mg/kg p.o., 1 hour post dose
[24] = 10 mg/kg p.o., 4 hours post dose
[25] = 10 mg/kg p.o., 6 hours post dose
[26] = 10 mg/kg p.o., 24 hours post dose
[27] = 30 mg/kg p.o., 1 hour post dose
[28] = 30 mg/kg p.o., 2 hours post dose
[29] = 30 mg/kg p.o., 4 hours post dose
[30] = 30 mg/kg p.o., 6 hours post dose
[31] = 30 mg/kg p.o., 24 hours post dose

Substance	%R percentage reduction in control angiotensin I response [1, 4]	%R percentage reduction in control angiotensin I response [1, 5]	%R percentage reduction in control angiotensin I response [1, 6]	%R percentage reduction in control angiotensin I response [1, 7]	%R percentage reduction in control angiotensin I response [1, 8]	%R percentage reduction in control angiotensin I response [1, 9]	%R percentage reduction in control angiotensin I response [1, 10]	%R percentage reduction in control angiotensin I response [1, 11]	%R percentage reduction in control angiotensin I response [1, 12]	%R percentage reduction in control angiotensin I response [1, 13]	%R percentage reduction in control angiotensin I response [1, 14]	%R percentage reduction in control angiotensin I response [1, 15]	%R percentage reduction in control angiotensin I response [1, 16]	%R percentage reduction in control angiotensin I response [1, 17]	%R percentage reduction in control angiotensin I response [1, 18]	%R percentage reduction in control angiotensin I response [1, 19]	%R percentage reduction in control angiotensin I response [1, 20]	%R percentage reduction in control angiotensin I response [1, 21]	%R percentage reduction in control angiotensin I response [1, 22]	other results
N-(1-Carboxypropyl)-(S)-alanyl-4α-benzyloxy-(S)-proline [Example 1]	39%	29%	6%	60%	64%	57%	41%	38%	36%	32%	24%	86%	80%	77%	76%	77%	73%	72%	74%	IC50 [2]: 3.3 nM
N-(1-carbethoxy-3-phenylpropyl)-(S)-alanyl-4α-benzyloxy-(S)-proline [Example 2]	23%	25%	19%	67%	66%	61%	53%	42%	47%	39%	29%	82%	81%	80%	69%	67%	69%	65%	60%	%R percentage reduction in control angiotensin I response ([1]; 0.03 mg/kg i.v, 25 min from dosage): 12%; % change in heart rate [3, 23]: -7 ± 3%; % change in systolic blood pressure [3, 23]: -5± 3%; % change in systolic blood pressure ([3]; 10 mg/kg p.o., 2 hours post dose): -10± 3%; % change in heart rate [3, 24]: -5 ± 4%; % change in systolic blood pressure [3, 24]: -22± 3%; % change in heart rate [3, 25]: 1 ± 4%; % change in systolic blood pressure [3, 25]: -22± 4%; % change in heart rate [3, 26]: -4 ± 3%; % change in systolic blood pressure [3, 26]: -7± 4%
N-[2-(2,3-dihydro-2-benzofuranyl)-l-(ethoxycarbonyl) -ethyl)-(S)-alanyl -4α-benzyloxy-(S)-nroline [Example 4]				34%	29%	25%	15%	14%	16%	14%										
N-[4-(2,3-dihydro-2-benzofuranyl)-l-(ethoxycar-α bonyl)-butyl]-(S)-alanyl-4αbenzyloxy-(S)-proline [Example 5]				61%	58%	52%	47%	44%	39%		18%									% change in heart rate [3, 27]: -2 ± 2%; % change in systolic blood pressure [3, 27]: -10± 3%; % change in heart rate [3, 28]: 0 ± 4%; % change in systolic blood pressure [3, 28]: -7± 2%; % change in heart rate [3, 29]: +5 ± 3%; % change in systolic blood pressure [3, 29]: -23± 1%; % change in heart rate [3, 30]: 0 ± 3%; % change in systolic blood pressure [3, 30]: -17± 1%; % change in heart rate [3, 31]: +9 ± 5%; % change in systolic blood pressure [3, 31]: +1± 3%
